Assay results: PubChem BioAssay (NCI)
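Step 1: Grow cells in 96-well plates. Step 2: Expose to compound for 48 hours at 5 concentrations. Step 3: Interpolate endpoints linearly; if unreached, use highest concentration. TGI is the concentration that stops growth completely.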

What was measured:
Test in all cases: NCI-60 cell line screen, 48 h
[1] = tested on: CAKI-1 renal
[2] = tested on: UACC-62 melanoma
[3] = tested on: DMS 273 small cell lung
[4] = tested on: K-562 leukemia
[5] = tested on: RXF 393 renal
[6] = tested on: SNB-78 CNS
[7] = tested on: SN12C renal
[8] = tested on: SF-539 CNS
[9] = tested on: HL-60(TB) leukemia
[10] = tested on: OVCAR-3 ovarian
[11] = tested on: A498 renal
[12] = tested on: MOLT-4 leukemia
[13] = tested on: MALME-3M melanoma
[14] = tested on: SF-268 CNS
[15] = tested on: KM12 colon
[16] = tested on: HOP-18 NSCLC
[17] = tested on: HOP-92 NSCLC
[18] = tested on: DMS 114 small cell lung
[19] = tested on: XF 498 CNS
[20] = tested on: M19-MEL melanoma
[21] = tested on: TK-10 renal
[22] = tested on: UO-31 renal
[23] = tested on: NCI-H226 lung
[24] = tested on: SF-295 CNS
[25] = tested on: NCI-H460 lung
[26] = tested on: OVCAR-5 ovarian
[27] = tested on: NCI-H23 lung
[28] = tested on: SK-MEL-28 melanoma
[29] = tested on: OVCAR-4 ovarian
[30] = tested on: SNB-19 CNS
[31] = tested on: OVCAR-8 ovarian
[32] = tested on: IGROV1 ovarian
[33] = tested on: NCI-H522 lung
[34] = tested on: U251 CNS
[35] = tested on: RXF-631 renal
[36] = tested on: HCT-116 colon
[37] = tested on: HT29 colon
[38] = tested on: HCC-2998 colon
[39] = tested on: SK-OV-3 ovarian
[40] = tested on: ACHN renal
[41] = tested on: A549 NSCLC
[42] = tested on: LXFL 529 NSCLC
[43] = tested on: SK-MEL-5 melanoma
[44] = tested on: HOP-62 NSCLC
[45] = tested on: UACC-257 melanoma
[46] = tested on: SK-MEL-2 melanoma
[47] = tested on: LOX IMVI melanoma
[48] = tested on: M14 melanoma
[49] = tested on: SNB-75 CNS
[50] = tested on: 786-0 renal
[51] = tested on: COLO 205 colon
[52] = tested on: HCT-15 colon
[53] = tested on: CCRF-CEM leukemia
[54] = tested on: KM20L2 colon
[55] = tested on: EKVX NSCLC
[56] = tested on: SW-620 colon
[57] = tested on: DLD-1 colon
[58] = tested on: SR leukemia
[59] = tested on: RPMI-8226 leukemia

Question: Which results are given for `O=c1/c(=C/c2ccc(Cl)cc2Cl)sc2nc3ccccc3n12`?
Answer: TGI [1]: > 100 µM; TGI [2]: > 100 µM; TGI [3]: > 100 µM; TGI [4]: > 100 µM; TGI [5]: > 100 µM; TGI [6]: > 100 µM; TGI [7]: > 100 µM; TGI [8]: > 100 µM; TGI [9]: > 100 µM; TGI [10]: > 100 µM; TGI [11]: > 100 µM; TGI [12]: > 100 µM; TGI [13]: > 100 µM; TGI [14]: > 100 µM; TGI [15]: > 100 µM; TGI [16]: > 100 µM; TGI [17]: > 100 µM; TGI [18]: > 100 µM; TGI [19]: > 100 µM; TGI [20]: > 100 µM; TGI [21]: > 100 µM; TGI [22]: > 100 µM; TGI [23]: > 100 µM; TGI [24]: > 100 µM; TGI [25]: > 100 µM; TGI [26]: > 100 µM; TGI [27]: > 100 µM; TGI [28]: > 100 µM; TGI [29]: > 100 µM; TGI [30]: > 100 µM; TGI [31]: > 100 µM; TGI [32]: > 100 µM; TGI [33]: > 100 µM; TGI [34]: > 100 µM; TGI [35]: > 100 µM; TGI [36]: > 100 µM; TGI [37]: > 100 µM; TGI [38]: > 100 µM; TGI [39]: > 100 µM; TGI [40]: > 100 µM; TGI [41]: > 100 µM; TGI [42]: > 100 µM; TGI [43]: > 100 µM; TGI [44]: > 100 µM; TGI [45]: > 100 µM; TGI [46]: > 100 µM; TGI [47]: > 100 µM; TGI [48]: > 100 µM; TGI [49]: > 100 µM; TGI [50]: > 100 µM; TGI [51]: > 100 µM; TGI [52]: > 100 µM; TGI [53]: > 100 µM; TGI [54]: > 100 µM; TGI [55]: > 100 µM; TGI [56]: > 100 µM; TGI [57]: > 100 µM

Question: Which results are given for `C=C1CC(CCCl)(c2ccccc2)OC1=O` (configuration not stated)?
Answer: TGI [2]: > 100 µM; TGI [3]: > 100 µM; TGI [4]: > 96.7 µM; TGI [5]: 47.7 µM; TGI [6]: > 81.8 µM; TGI [7]: > 62.7 µM; TGI [8]: > 62 µM; TGI [9]: 44.8 µM; TGI [10]: 71.8 µM; TGI [11]: > 100 µM; TGI [12]: 49.9 µM; TGI [13]: 56.8 µM; TGI [14]: > 90.5 µM; TGI [15]: > 100 µM; TGI [16]: > 59.3 µM; TGI [17]: 34.2 µM; TGI [58]: 52.6 µM; TGI [18]: > 63.2 µM; TGI [19]: > 100 µM; TGI [20]: > 54.9 µM; TGI [21]: > 77.7 µM; TGI [22]: > 100 µM; TGI [23]: > 100 µM; TGI [24]: > 100 µM; TGI [25]: > 100 µM; TGI [26]: > 100 µM; TGI [27]: > 100 µM; TGI [28]: 22.2 µM; TGI [29]: > 100 µM; TGI [30]: > 100 µM; TGI [31]: > 100 µM; TGI [32]: > 100 µM; TGI [33]: 33.2 µM; TGI [34]: > 100 µM; TGI [35]: > 62.8 µM; TGI [36]: > 53.9 µM; TGI [59]: 71.5 µM; TGI [37]: > 72.1 µM; TGI [38]: > 100 µM; TGI [39]: > 100 µM; TGI [40]: > 56.3 µM; TGI [41]: > 100 µM; TGI [42]: 45.4 µM; TGI [43]: > 100 µM; TGI [44]: > 100 µM; TGI [45]: > 75.1 µM; TGI [46]: > 100 µM; TGI [47]: > 62.2 µM; TGI [48]: 38.6 µM; TGI [49]: 71 µM; TGI [50]: 31.7 µM; TGI [51]: > 58 µM; TGI [52]: 39.2 µM; TGI [53]: 49.2 µM; TGI [54]: > 100 µM; TGI [55]: > 63.1 µM; TGI [56]: 39.5 µM; TGI [57]: 42.5 µM

Question: How did the TGI [1] turn out when `Cc1ccc(NC(=O)/C(CC(=O)c2c[n+](=O)c3ccccc3n2O)=N\NC(=O)C[n+]2ccccc2)cc1` was run?
Answer: > 100 µM

Question: And the TGI [2]?
Answer: > 100 µM

Question: What about the TGI [3] of the same molecule?
Answer: > 100 µM

Question: What about the TGI [4] of the same molecule?
Answer: > 100 µM

Question: And the TGI [5]?
Answer: > 100 µM

Question: And the TGI [6]?
Answer: > 100 µM

Question: And the TGI [7]?
Answer: > 100 µM

Question: What about the TGI [8] of the same molecule?
Answer: > 100 µM

Question: What about the TGI [9] of the same molecule?
Answer: > 100 µM

Question: What about the TGI [10] of the same molecule?
Answer: > 100 µM

Question: And the TGI [11]?
Answer: > 100 µM

Question: And the TGI [12]?
Answer: > 100 µM

Question: And the TGI [13]?
Answer: > 100 µM

Question: What about the TGI [14] of the same molecule?
Answer: > 100 µM

Question: And the TGI [15]?
Answer: > 100 µM

Question: And the TGI [16]?
Answer: > 100 µM

Question: What about the TGI [58] of the same molecule?
Answer: > 100 µM

Question: And the TGI [18]?
Answer: > 100 µM

Question: What about the TGI [19] of the same molecule?
Answer: > 100 µM

Question: What about the TGI [20] of the same molecule?
Answer: > 100 µM

Question: And the TGI [21]?
Answer: > 100 µM

Question: And the TGI [22]?
Answer: > 100 µM

Question: And the TGI [23]?
Answer: > 100 µM

Question: And the TGI [24]?
Answer: > 100 µM

Question: What about the TGI [25] of the same molecule?
Answer: > 100 µM

Question: And the TGI [26]?
Answer: > 100 µM

Question: And the TGI [28]?
Answer: > 100 µM

Question: And the TGI [29]?
Answer: > 100 µM

Question: And the TGI [30]?
Answer: > 100 µM

Question: And the TGI [31]?
Answer: > 100 µM

Question: And the TGI [32]?
Answer: > 100 µM

Question: What about the TGI [33] of the same molecule?
Answer: > 100 µM

Question: And the TGI [34]?
Answer: > 100 µM

Question: What about the TGI [35] of the same molecule?
Answer: > 100 µM

Question: And the TGI [36]?
Answer: > 100 µM

Question: And the TGI [59]?
Answer: > 100 µM

Question: What about the TGI [37] of the same molecule?
Answer: > 100 µM

Question: What about the TGI [38] of the same molecule?
Answer: > 100 µM

Question: What about the TGI [39] of the same molecule?
Answer: > 100 µM

Question: What about the TGI [40] of the same molecule?
Answer: > 100 µM

Question: What about the TGI [41] of the same molecule?
Answer: > 100 µM

Question: And the TGI [42]?
Answer: > 100 µM

Question: What about the TGI [43] of the same molecule?
Answer: > 100 µM

Question: And the TGI [44]?
Answer: > 100 µM

Question: And the TGI [45]?
Answer: > 100 µM

Question: And the TGI [46]?
Answer: > 100 µM

Question: What about the TGI [47] of the same molecule?
Answer: > 100 µM

Question: And the TGI [48]?
Answer: > 100 µM

Question: What about the TGI [49] of the same molecule?
Answer: > 100 µM

Question: What about the TGI [50] of the same molecule?
Answer: > 100 µM

Question: What about the TGI [51] of the same molecule?
Answer: > 100 µM

Question: And the TGI [52]?
Answer: > 100 µM

Question: And the TGI [53]?
Answer: > 100 µM

Question: And the TGI [54]?
Answer: > 100 µM

Question: What about the TGI [55] of the same molecule?
Answer: > 100 µM

Question: And the TGI [56]?
Answer: > 100 µM

Question: What about the TGI [57] of the same molecule?
Answer: > 100 µM
